{"source": "patent US8178506B2", "about": "“Oligomeric compounds and compositions for use in modulation of small non-coding RNAs” (Regulus Therapeutics Inc., priority 2003, dated 2012)", "system": "mir-143 binding site within the coding sequence of ERK5", "experiment": "pGL3-ERK5-cds luciferase assays in HeLa cells", "assay_type": "cell-based, human", "details": "for luciferase expression: HeLa cells, 24 hours", "procedure": "An expression system based on the pGL3-Control (Promega Corp., Madison Wis.) reporter vector and comprising predicted miRNA binding sites was used in transient transfections of HeLa cells with plasmids expressing oligomeric compounds mimicking miRNAs, pre-miRNAs or pri-miRNAs in order to assess the ability of these miRNA mimics to bind and regulate the expression of the luciferase reporter. The effect of increasing the copy number of the miRNA-binding site in the target was also tested by including multiple binding sites in artificial reporter constructs. It is understood that the presence of multiple miRNA-binding sites in a target can include binding sites for different miRNAs.\nThe following reporter plasmids were constructed by cloning the specified fragment into the XbaI site of the pGL3-control plasmid, placing the potential miRNA-binding site in the 3′-UTR of the luciferase reporter: The reporter plasmid pGL3-bulge(×3) contains three contiguous copies of the sequence ([…]; herein incorporated as SEQ ID NO: 874) which represents a sequence complementary to the mir-143 miRNA except that it is missing 2 nucleotides such that the mir-143 miRNA is presumed to adopt a bulged structure when it hybridizes to this target sequence. The pGL3-GLO1 reporter plasmid contains a DNA fragment comprising the 3′-UTR of the GLO1 sequence; this fragment was PCR-amplified using a primer beginning at nucleotide number 621 of the GLO1 sequence (GenBank Accession NM_006708.1, SEQ ID NO: 821) and the downstream primer hybridizing to the poly A tail. The pGL3-PP2A reporter plasmid contains a DNA fragment comprising the 3′-UTR of the PP2A gene; this fragment was PCR-amplified using a primer beginning at nucleotide number 921 of the PP2A sequence (GenBank Accession NM_004156.1) and the downstream primer hybridizing to the poly A tail. The reporter plasmid pGL3-ERK5-3′-UTR(×1) contains one copy of the sequence […] (herein incorporated as SEQ ID NO: 875), found in the 3′-UTR of ERK5 and predicted by Lewis, et al. to be bound by the mir-143 miRNA, and the reporter plasmid pGL3-ERK5-3′UTR(×3) has three contiguous copies of this sequence. The reporter plasmid pGL3-ERK5-3′UTR(ext) contains one copy of the sequence […] (herein incorporated as SEQ ID NO: 876), which includes an additional ten nucleotides at either end of the mir-143 binding site in 3′-UTR of ERK5 predicted by Lewis, et al. (Lewis et al., Cell, 2003, 115, 787-798). The plasmids pGL3-ERK5-cds(×1), pGL3-ERK5-cds(×2), pGL3-ERK5-cds(×3), and pGL3-ERK5-cds(×5) contain one, two, three or five contiguous copies, respectively, of the novel mir-143 binding site ([…]; herein incorporated as SEQ ID NO: 877) we identified within the coding sequence of ERK5. The unmodified pGL3-Control luciferase reporter vector was used as a negative control, and the pGL3-mir-143 sensor reporter plasmid was used as a positive control.\nHeLa cells were routinely cultured and passaged as described. In some embodiments, HeLa cells were transfected with 0.05 μg of the relevant pGL3-sensor plasmid and 0.01 μg pRL-CMV plasmid. Additionally, in some embodiments, cells were treated at various dosages (11 nM, 33 nM, and 100 nM) with the following oligomeric compound mimics: 1) ds-mir-143, or 2) ds-Control as described. In accordance with methods described in Example 12, a luciferase assay was performed 24-hours after transfection. The results, shown in Tables 40 and 41, are an average of three trials. Data are presented as percent untreated control (luciferase plasmid only, not treated with oligomeric compound) luciferase expression, normalized to pRL-CMV levels.", "data": [{"substance": "ds-mir-143: double-stranded RNA of ISIS 342199 hybridized to its perfect complement ISIS 342200 (sense UGAGAUGAAGCACUGUAGCUCA; antisense UGAGCUACAGUGCUUCAUCUCA; RNA, backbone not given here)", "values": [{"measurement": "luciferase expression from pGL3-ERK5-cds(×1) or pGL3-ERK5-cds(×2)", "setting": "HeLa, 100 nM", "result": "did reduce luciferase expression"}, {"measurement": "luciferase activity from pGL3-ERK5-cds(×3) or pGL3-ERK5-cds(×5)", "setting": "HeLa, 11, 33 and 100 nM", "result": "reduction in luciferase activity"}, {"measurement": "luciferase activity from pGL3-ERK5-cds(×5), dose response", "setting": "HeLa, 11, 33 and 100 nM", "result": "dose-responsiveness"}, {"measurement": "luciferase activity from pGL3-ERK5-cds(×1) or pGL3-ERK5-cds(×2)", "setting": "HeLa, 11- or 33 nM", "result": "did not appear to inhibit luciferase activity"}, {"measurement": "luciferase expression", "setting": "Table 41, pGL3-ERK5-cds(x1), 11 nM", "result": 101.3, "unit": "percent untreated control"}, {"measurement": "luciferase expression", "setting": "Table 41, pGL3-ERK5-cds(x1), 33 nM", "result": 115.4, "unit": "percent untreated control"}, {"measurement": "luciferase expression", "setting": "Table 41, pGL3-ERK5-cds(x1), 100 nM", "result": 77.4, "unit": "percent untreated control"}, {"measurement": "luciferase expression", "setting": "Table 41, pGL3-ERK5-cds(x2), 11 nM", "result": 92.7, "unit": "percent untreated control"}, {"measurement": "luciferase expression", "setting": "Table 41, pGL3-ERK5-cds(x2), 33 nM", "result": 113.8, "unit": "percent untreated control"}, {"measurement": "luciferase expression", "setting": "Table 41, pGL3-ERK5-cds(x2), 100 nM", "result": 63.6, "unit": "percent untreated control"}, {"measurement": "luciferase expression", "setting": "Table 41, pGL3-ERK5-cds(x3), 11 nM", "result": 73.5, "unit": "percent untreated control"}, {"measurement": "luciferase expression", "setting": "Table 41, pGL3-ERK5-cds(x3), 33 nM", "result": 77.9, "unit": "percent untreated control"}, {"measurement": "luciferase expression", "setting": "Table 41, pGL3-ERK5-cds(x3), 100 nM", "result": 49.4, "unit": "percent untreated control"}, {"measurement": "luciferase expression", "setting": "Table 41, pGL3-ERK5-cds(x5), 11 nM", "result": 49.4, "unit": "percent untreated control"}, {"measurement": "luciferase expression", "setting": "Table 41, pGL3-ERK5-cds(x5), 33 nM", "result": 44.5, "unit": "percent untreated control"}, {"measurement": "luciferase expression", "setting": "Table 41, pGL3-ERK5-cds(x5), 100 nM", "result": 23.9, "unit": "percent untreated control"}]}]}
